Measured values reported in PubChem BioAssay (NCI).
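A five-concentration, 48-hour dose response in 96-well plates underlies each endpoint, interpolated linearly between surrounding concentrations. At the TGI there is no net growth.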

Experiments:
Experiment in all cases: NCI-60 cell line screen, 48 h
NCI-H226 lung = tested on: NCI-H226 lung
SK-MEL-2 melanoma = tested on: SK-MEL-2 melanoma
HOP-62 NSCLC = tested on: HOP-62 NSCLC
ACHN renal = tested on: ACHN renal
A549 NSCLC = tested on: A549 NSCLC
SF-295 CNS = tested on: SF-295 CNS
CAKI-1 renal = tested on: CAKI-1 renal
OVCAR-3 ovarian = tested on: OVCAR-3 ovarian
UACC-257 melanoma = tested on: UACC-257 melanoma
HT29 colon = tested on: HT29 colon
MDA-MB-231 breast = tested on: MDA-MB-231 breast
K-562 leukemia = tested on: K-562 leukemia
IGROV1 ovarian = tested on: IGROV1 ovarian
SK-MEL-28 melanoma = tested on: SK-MEL-28 melanoma
HCT-15 colon = tested on: HCT-15 colon
SN12C renal = tested on: SN12C renal
SK-OV-3 ovarian = tested on: SK-OV-3 ovarian
MDA-N = tested on: MDA-N
MALME-3M melanoma = tested on: MALME-3M melanoma
MDA-MB-435 = tested on: MDA-MB-435
T-47D breast = tested on: T-47D breast
LOX IMVI melanoma = tested on: LOX IMVI melanoma
SF-268 CNS = tested on: SF-268 CNS
OVCAR-5 ovarian = tested on: OVCAR-5 ovarian
EKVX NSCLC = tested on: EKVX NSCLC
A498 renal = tested on: A498 renal
SF-539 CNS = tested on: SF-539 CNS
NCI/ADR-RES ovarian = tested on: NCI/ADR-RES ovarian
RXF 393 renal = tested on: RXF 393 renal
TK-10 renal = tested on: TK-10 renal
HCT-116 colon = tested on: HCT-116 colon
OVCAR-4 ovarian = tested on: OVCAR-4 ovarian
M14 melanoma = tested on: M14 melanoma
MCF7 breast = tested on: MCF7 breast
SNB-19 CNS = tested on: SNB-19 CNS
HOP-92 NSCLC = tested on: HOP-92 NSCLC
HL-60(TB) leukemia = tested on: HL-60(TB) leukemia
CCRF-CEM leukemia = tested on: CCRF-CEM leukemia
MOLT-4 leukemia = tested on: MOLT-4 leukemia
DU-145 prostate = tested on: DU-145 prostate
NCI-H23 lung = tested on: NCI-H23 lung
U251 CNS = tested on: U251 CNS
NCI-H522 lung = tested on: NCI-H522 lung
OVCAR-8 ovarian = tested on: OVCAR-8 ovarian
SR leukemia = tested on: SR leukemia
RPMI-8226 leukemia = tested on: RPMI-8226 leukemia
KM12 colon = tested on: KM12 colon
BT-549 breast = tested on: BT-549 breast
SW-620 colon = tested on: SW-620 colon
HS 578T breast = tested on: HS 578T breast
SNB-75 CNS = tested on: SNB-75 CNS
COLO 205 colon = tested on: COLO 205 colon
PC-3 prostate = tested on: PC-3 prostate
UO-31 renal = tested on: UO-31 renal
SK-MEL-5 melanoma = tested on: SK-MEL-5 melanoma
786-0 renal = tested on: 786-0 renal

Cc1ccc([N+](=O)[O-])cc1S(=O)(=O)Nc1ccc(C2=NN(C(=O)c3ccccc3)C(c3ccccc3)C2)cc1 (stereo unspecified)
TGI (NCI-H226 lung): 72.2 µM | TGI (SK-MEL-2 melanoma): 38.7 µM | TGI (HOP-62 NSCLC): 72 µM | TGI (ACHN renal): 93.6 µM | TGI (A549 NSCLC): > 100 µM | TGI (SF-295 CNS): > 100 µM | TGI (CAKI-1 renal): > 100 µM | TGI (OVCAR-3 ovarian): 49 µM | TGI (UACC-257 melanoma): 64.7 µM | TGI (HT29 colon): > 100 µM | TGI (MDA-MB-231 breast): 46.3 µM | TGI (K-562 leukemia): > 100 µM | TGI (IGROV1 ovarian): 95.2 µM | TGI (SK-MEL-28 melanoma): > 100 µM | TGI (HCT-15 colon): > 100 µM | TGI (SN12C renal): 63.1 µM | TGI (SK-OV-3 ovarian): 73.7 µM | TGI (MDA-N): 67.4 µM | TGI (MALME-3M melanoma): 66.6 µM | TGI (MDA-MB-435): > 100 µM | TGI (T-47D breast): 97.5 µM | TGI (LOX IMVI melanoma): > 100 µM | TGI (SF-268 CNS): > 100 µM | TGI (OVCAR-5 ovarian): > 100 µM | TGI (EKVX NSCLC): 59.7 µM | TGI (A498 renal): 51.3 µM | TGI (SF-539 CNS): 55.2 µM | TGI (NCI/ADR-RES ovarian): > 100 µM | TGI (RXF 393 renal): 57.3 µM | TGI (TK-10 renal): 68.8 µM | TGI (HCT-116 colon): > 100 µM | TGI (OVCAR-4 ovarian): > 100 µM | TGI (M14 melanoma): > 100 µM | TGI (MCF7 breast): 75.7 µM | TGI (SNB-19 CNS): > 100 µM | TGI (HOP-92 NSCLC): 62.9 µM | TGI (HL-60(TB) leukemia): 81.8 µM | TGI (CCRF-CEM leukemia): > 100 µM | TGI (MOLT-4 leukemia): > 100 µM | TGI (DU-145 prostate): > 100 µM | TGI (NCI-H23 lung): 68.2 µM | TGI (U251 CNS): > 100 µM | TGI (NCI-H522 lung): 58.2 µM | TGI (OVCAR-8 ovarian): > 100 µM | TGI (SR leukemia): > 100 µM | TGI (RPMI-8226 leukemia): > 100 µM | TGI (KM12 colon): > 100 µM | TGI (BT-549 breast): 96.9 µM | TGI (SW-620 colon): > 100 µM | TGI (HS 578T breast): > 100 µM | TGI (SNB-75 CNS): 49.9 µM | TGI (COLO 205 colon): 33.9 µM | TGI (PC-3 prostate): > 100 µM | TGI (UO-31 renal): > 100 µM | TGI (SK-MEL-5 melanoma): 30.4 µM | TGI (786-0 renal): 48.2 µM
